Experiments:
[1] = tested on: human CD19+ B cells; experiment: Inhibition of CD154-induced human B-cell proliferation (BrdU ELISA); type: cell-based
From the text: CD40 stimulation is an important proliferation signal for human B cell proliferation (Fecteau et al., “CD40 stimulation of human peripheral B lymphocytes: distinct response from naive and memory cells. J. Immunol., vol. 171, pp. 4621-4629, 2003; Wiesner et al., “Conditional immortalization of human B cells by CD40 ligation,” PLoS ONE, vol. 3, pp. e1464, 2008), and soluble CD154 (CD40 ligand) can dose-dependently induce the proliferation of human CD19^+ B cells as measured by standard proliferation .assays. […]
The detailed procedure is as follows: Frozen MPB CD19^+ B lymphocytes (approximately 10^6 cells per vial) were obtained from StemCells Technologies (Vancouver, Canada), thawed in a 37° C. water bath until no crystal piece was left, and the cell suspension was transferred to a 50 mL conical tube. […] This was repeated, the cells were counted, and the concentration of viable cells was adjusted to approximately 1×10^6 cells/mL. […] A colorimetric cell proliferation ELISA BrdU from Roche Applied Science (Indianapolis, Ind.) was used as immunoassay for quantification of cell proliferation based on the measurement of BrdU incorporation during DNA replication. […]

[2] = molecular target: P2 (ATP/UTP purine receptor); details: read-out: IC50, P2 antagonist; cited from earlier work

Row | Structure (SMILES) | IC50 ([1]; Homo sapiens, B-cell, CD19+ B cells, 48 h + 48 h BrdU) [µM] | IC50 [2] [µM] | Inhibition of CD154-induced B-cell proliferation [1]
1 | Cc1ccc(C(=O)Nc2ccc(S(=O)(=O)O)c3cc(S(=O)(=O)O)cc(S(=O)(=O)O)c23)cc1NC(=O)c1cccc(NC(=O)Nc2cccc(C(=O)Nc3cc(C(=O)Nc4ccc(S(=O)(=O)O)c5cc(S(=O)(=O)O)cc(S(=O)(=O)O)c45)ccc3C)c2)c1 [Suramin, reference compound] | 50 to 100 | 5 to 10 | –
2 | O=C([O-])C1=NN(c2ccc(S(=O)(=O)[O-])cc2)C(=O)C1N=Nc1ccc(S(=O)(=O)[O-])cc1.[Na+].[Na+].[Na+] (stereo not drawn) [Tartrazine (FD&C yellow 5), Tartrazine, reference compound] | – | – | no proliferation inhibiting activity

Reference: patent US20110065675A1, “AZO DYE RELATED SMALL MOLECULE MODULATORS OF PROTEIN-PROTEIN INTERACTIONS” (University of Miami, priority 2008, published 2011)
